Laboratory results from patent publication US5540937A, “Process for preparing microspheres for the prolonged release of the LHRH hormone and its analogues, microspheres and formulations obtained” (Rhone Merieux, priority 1992, dated 1996).

Assay: solubility of the peptide in the continuous phase
Format: physicochemical
Conditions: continuous aqueous phase (demineralized water containing 1% PVA)
Description: Although the solubility of this peptide in water is high, high encapsulation yields are obtained.

solubility in the continuous phase: about 45 mg/ml
Compound: CC(C)C[C@H](NC(=O)[C@@H](Cc1c[nH]c2ccccc12)NC(=O)[C@H](Cc1ccc(O)cc1)NC(=O)[C@H](CO)NC(=O)[C@H](Cc1c[nH]c2ccccc12)NC(=O)[C@H](Cc1c[nH]cn1)NC(=O)[C@@H]1CCC(=O)N1)C(=O)N[C@@H](CCCNC(=N)N)C(=O)N1CCC[C@H]1C(=O)NCC(N)=O [[D-Trp^6]-LHRH]
